We go through three compounds from US20250163016A1, “PYRIDINE DERIVATIVE, PREPARATION METHOD THEREFOR AND USE THEREOF” (CHENGDU EASTON BIOPHARMACEUTICALS CO., LTD., priority 2022, published 2025).

Series [1] has as its system HL-60 cell subcutaneous heterograft tumor. The experiment in a line: In-vivo efficacy in HL-60 cell subcutaneous heterograft tumor model. Also noted: species or system Balb/C nu mice. Conditions: HL-60 xenograft, qd, p.o., 10 mg/Kg, 10 days. The procedure:
• DMEM culture medium containing 10% fetal bovine serum (FBS), 37° C., 5% CO2.
(§1) Balb/C nu mice, female, 6-8 weeks, weight about 18-22 grams, and each mouse was subcutaneously inoculated with 0.1 mL (1×10^7 cells+matrigel) of HL-60 cells on the right side. When an average volume of tumors reached 100-200 cubic millimeters, group administration was performed, see the table below (Table 13) for administration dosages and methods. The tumor volume was measured twice a week, the weights of the mice as well as lengths and widths of tumors were recorded in each time of measurement, and the tumor volume=length×width×width/2 mm^3. When the average tumor volume of a solvent group grew to 3000 cubic millimeters or above, administration was ended, and an average tumor volume difference between a tested compound group and the solvent group was obtained via comparison. The tumor suppression effects of the compounds were evaluated with TGI (%), which could reflect a tumor growth inhibition rate.

Series [2] has as its target T1, LSD1 (Homo sapiens, UniProt O60341).
T1 construct: purchased Active Motif 31432
The experiment in a line: LSD1 activity test (HTRF). The series is classed as biochemical. Conditions: H3(1-21)K4 me1-biotin substrate, read-out: IC50, inhibitory activity on LSD1. The procedure: In this test, a homogeneous time resolved fluorescence (HTRF) technology was utilized, and the inhibitory activity of compounds on LSD1 was detected by adopting a two-step method. The first step was to incubate LSD1, compounds of different concentrations, and a biotin-labeled methylated polypeptide substrate (H3(1-21)K4 me1-biotin) at the room temperature for fixed time.
A corresponding solution with a 1000-fold final concentration was formed by dilution in a 384-well Source plate, and then Echo550 was used for transferring 10 nL to a 384-well reaction plate for being tested.
An inhibition percentage was calculated using a maximum value, a minimum value, and a signal value (maximum value: fluorescence intensity of 5 μL of 2× enzyme solution+5 μL of 2× substrate mixed solution+10 nL of 100% DMSO+10 μL of detection solution; minimum value: fluorescence intensity of 5 μL of 1× reaction solution+5 μL of 2× substrate mixed solution+10 nL of 100% DMSO+10 μL of detection solution; and signal value: fluorescence intensity of 5 μL of 2× enzyme solution+5 μL of 2× substrate mixed solution+10 nL of diluted compound to be tested+10 μL of detection solution), and a calculation formula was as follows: […]
Using a logarithm of the concentration as an X axis and the percentage inhibition rate as a Y axis, a dose-response curve was fitted using a formula log(inhibitor) vs. response-Variable slope (Four parameters) of analysis software Graphpad Prism 5 to obtain the IC50 value of each compound on the enzyme activity.
A general note: Time-resolved FRET reads energy transfer from a long-lived donor to a nearby acceptor.

Series [3] has as its system Kasumi-1 cell subcutaneous heterograft tumor. The experiment in a line: In-vivo efficacy in Kasumi-1 cell subcutaneous heterograft tumor model. To be noted: for weight of the mice after administration / tolerance of the tested animals: Kasumi-1 xenograft mice; for weight of the mice after administration: FIG. 3; for tolerance of the tested animals: qd p.o. 20 days; for TGI: Kasumi-1 xenograft, qd, p.o., 20 days. The procedure:
• RPMI 1640 culture medium containing 20% fetal bovine serum (FBS), 37° C., 5% CO2.
• Solvent: 0.5% methylcellulose aqueous solution; • Tested drug: compounds 16 and 36.
as §1, with “CB17 SCID” for “Balb/C nu”, “Kasumi-1” for “HL-60”, “12)” for “13)”, “ended, each group of mice was killed and dissected to take out tumor lumps, the tumor weight of each mouse was weighed and the tumor volume was measured,” for “ended,”
Calculation of TGI (%):TGI (%)=[1−(current average tumor volume of compounds−average tumor volume at the beginning of compounds)/(current average tumor volume of solvent group−average tumor volume at the beginning of solvent group)]×100%

The subject of series [4] is Kasumi-1 cells. The experiment in a line: Kasumi-1 cell proliferation inhibition test (Celltiter GLO). It is filed as cell-based. To be noted: Homo sapiens, 168 h, Kasumi-1, 7 days culture. The procedure:
Research had confirmed that LSD1 played a crucial role in the occurrence process of various types of cancers, including small cell lung cancer (SCLC) and acute myeloid leukemia (AML). Therefore, a human acute myeloid leukemia (Kasumi-1) cell line was used to determine the ATP content in cells at different drug concentrations using a Celltiter GLO assay kit, the cell activity was reflected by luminescence intensity, and IC50 values of different compounds on Kasumi-1 cells were calculated using inhibition rates. The inhibitory effects of the compounds in the present application on the proliferation of Kasumi-1 cells were studied to evaluate the anti-tumor efficacy of the tested compounds at the cellular level.
• Day 1 Cells were seeded into the 384-well cell culture plate and placed in a 37° C. 5% CO2 cell incubator to be cultured overnight. • Day 0 The compound to be tested was prepared into a 10 mM mother liquid using DMSO, starting from […], diluted by 3 folds, with 10 concentration points and double duplicate wells. A diluted compound was added into the 384-well cell culture plate and placed in a 37° C. 5% CO2 cell incubator to be cultured for 7 days. The concentration of the DMSO in a cell culture system was 0.1 vol %. • Day 7 Celltiter GLO was added into the 384-well cell culture plate according to a volume ratio of culture system:Celltiter GLO=1:1, light-shielded oscillation was carried out on a plate oscillator for 3 min, then the cell culture plate was placed at the room temperature for 30 min with light shielded, and the plate was read using a multifunctional microplate reader chemical light emitting module.
An inhibition rate was calculated by utilizing luminescence intensity of the above DMSO group (with DMSO added), test group (with the tested compound or a positive control solution added) and blank group (not treating cells), and a calculation formula was as follows: […]
Using a logarithm of the concentration as an X axis and the percentage inhibition rate as a Y axis, a dose-response curve was fitted using a formula log(inhibitor) vs. response-Variable slope (Four parameters) of analysis software Graphpad Prism 8 to obtain the IC50 value of each compound on Kasumi-1 proliferation inhibition activity.

SMILES strings stand for the structures.

Usually TGI stands for how far tumour growth fell short of that in controls. High values mean a stronger effect on the tumour, low ones a weaker effect on the tumour. One may read the IC50 as the concentration that gives 50% inhibition. `CC(C)(O)Cn1ncc2cc(-c3c(C#N)cc(N4CCC(N)CC4)nc3-c3ccc(C#N)c(F)c3)c(F)cc21` [Compound 16, 6-(4-aminopiperid-1-yl)-2-(4-cyano-3-fluorophenyl)-3-(6-fluoro-1-(2-hydroxyl-2-methylpropyl)-1H-indazol-5-yl)isonicotinonitrile]: the TGI in series [1] is 73.2%; in series [3] (3.5 mg/Kg) it was 78.28%; in series [3] (5 mg/Kg), 86.13%. Further, the IC50 in series [2] worked out at 0.23 nM; in series [4] it was 0.59 nM. Also, the “weight of the mice after administration” value in series [3] was “does not decrease”. Moreover, the “tolerance of the tested animals” value in series [3] is on record as “good tolerance”.

On to `CC(C)(O)Cn1nc(F)c2cc(-c3c(C#N)cc(N4CCC(N)CC4)nc3-c3ccc(C#N)c(F)c3)c(F)cc21` [Compound 36, 6-(4-aminopiperid-1-yl)-2-(4-cyano-3-fluorophenyl)-3-(3,6-difluoro-1-(2-hydroxyl-2-methylpropyl)-1H-indazol-5-yl)isonicotinonitrile], for which, in series [2], the IC50 was 0.45 nM. Besides, in series [3], the “weight of the mice after administration” value is “does not decrease” and the “tolerance of the tested animals” value is on record as “good tolerance”. The compound also gave a TGI in series [3] (5 mg/Kg) of 84.87%.

As for `COc1ccc(-c2c(-c3ccc(C#N)c(F)c3)nc(N3CCC(N)CC3)n(C)c2=O)cc1F` [CC-90011, reference compound], the TGI in series [1] was 35.3%. Also, in series [4], the IC50 was found to be 3.18 nM.
